US9532519B2, “Plant growth regulator and use thereof” (Japan Science and Technology Agency, priority 2006, dated 2017)

Key:
Assay type in all cases: in vivo
[1] = test system: eustoma; assay: Effect on promoting growth of roots of eustoma; settings: MS culture medium containing 1 mM-GSSG or GSH, grown 1 month, transferred to planter
From the text: In the planter, 2 parts of vermiculite, 1 part of The Kureha Ikubyou Baido soil, and 1 part of vermiculite were layered as a lower layer, a middle layer, and an upper layer, respectively, and the above plants were transferred thereto.

[2] = test system: strawberry (breed; Eminent garden series, Yokubari-ichigo kurenai (SUMIKA)); assay: Effect of oxidized glutathione on growth of strawberry (number of runners); settings: GSH-treated zone
[3] = test system: Arabidopsis; assay: Influence of oxidized glutathione on growth of Arabidopsis; settings: 5 mM H2O2 solution; 8 weeks after the sowing
Method: Specifically, the plants were cultivated with two or three plants in one pod of approximately 65 in width, 65 in depth, and 50 in height, and an appropriate amount of a treatment solution was supplied. The effect of the treatment was evaluated with respect to the number of rosette leaves, the speed of a growing flower stalk, the number of flowers, and the number of seeds.

Structure (SMILES)	growth of roots vs plants not treated with GSSG [1]	increase in the number of runners relative to the increase of the GSSG-treated zone [2]	number of runners per one stock vs Cont zone [2]	state of plant (life of plant) [3]
N[C@@H](CCC(=O)N[C@@H](CS)C(=O)NCC(=O)O)C(=O)O [GSH, reduced glutathione]	subdued growth of roots	approximately one third	more number of runners per one stock than a Cont zone	
OO [H2O2, reference compound]				withering
